# Test: Metabolism (organ and blood radioactivity) of [^3H]-HHT in P388 mice
# Format: in vivo
# Conditions: P388 mice, [^3H]-HHT 1 mg/kg
# Description: Animals: Adult DBA/2J male mice, 6 to 8 weeks old. All animals weighed approximately 25 g when used in experiments. Each member of which received identical dosed (i.p.) of HHT.
# Tumor: P388 leukemic cells induced in mice by inoculation with L1210 or P388 leukemic cells ([…]).
# After P388 induced in mice 5 days, 1 mg/kg of [^3H]-HHT (100 μC/mg) was injected to mice. Volumes were 0.01 ml/g body weight. […] The key data of HHT in metabolism process are determined counts per minute (CPM) of [^3H]-HHT in organs. CPM is determined by liquid scintillation counting (LSC). The methods of LSC combined with radioactive of [^3H]-HHT can be determined using a tracer of HHT in organs. After killed animals, organs and blood were obtained from P388 mice. Organs were weighted. 10 mg of organs were digested. 10 ml of scintillation solution (which containing […]) were added to digested solution and determined at LSC. Other processes are similar to the standard method.
smiles,measurement,setting,value
"COC(=O)C[C@](O)(CCCC(C)(C)O)C(=O)O[C@@H]1C(OC)=C[C@]23CCCN2CCc2cc4c(cc2[C@H]13)OCO4 [HHT, Homoharringtonine]","CMP/mg organ, Bone",1 hour,500 CMP/mg organ
same,"CMP/mg organ, Brain",1 hour,499 CMP/mg organ
same,"CMP/mg organ, Contents of intestine",1 hour,3323 CMP/mg organ
same,"CMP/mg organ, Contents of stomach",1 hour,6821 CMP/mg organ
same,"CMP/mg organ, Heart",1 hour,1403 CMP/mg organ
same,"CMP/mg organ, Intestine",1 hour,1638 CMP/mg organ
same,"CMP/mg organ, Kidney",1 hour,6501 CMP/mg organ
same,"CMP/mg organ, Liver",1 hour,4145 CMP/mg organ
same,"CMP/mg organ, Lung",1 hour,2100 CMP/mg organ
same,"CMP/mg organ, Spleen",1 hour,2828 CMP/mg organ
same,"CMP/mg organ, Stomach",1 hour,1626 CMP/mg organ
same,"CMP/mg organ, Bone",3 hours,560 CMP/mg organ
same,"CMP/mg organ, Brain",3 hours,646 CMP/mg organ
same,"CMP/mg organ, Contents of intestine",3 hours,7215 CMP/mg organ
same,"CMP/mg organ, Contents of stomach",3 hours,84375 CMP/mg organ
same,"CMP/mg organ, Heart",3 hours,1800 CMP/mg organ
same,"CMP/mg organ, Intestine",3 hours,3288 CMP/mg organ
same,"CMP/mg organ, Kidney",3 hours,3121 CMP/mg organ
same,"CMP/mg organ, Liver",3 hours,6718 CMP/mg organ
same,"CMP/mg organ, Lung",3 hours,2427 CMP/mg organ
same,"CMP/mg organ, Spleen",3 hours,2426 CMP/mg organ
same,"CMP/mg organ, Stomach",3 hours,2321 CMP/mg organ
same,"CMP/mg organ, Bone",6 hours,505 CMP/mg organ
same,"CMP/mg organ, Brain",6 hours,793 CMP/mg organ
same,"CMP/mg organ, Contents of intestine",6 hours,6250 CMP/mg organ
same,"CMP/mg organ, Contents of stomach",6 hours,100719 CMP/mg organ
same,"CMP/mg organ, Heart",6 hours,1193 CMP/mg organ
same,"CMP/mg organ, Intestine",6 hours,2475 CMP/mg organ
same,"CMP/mg organ, Kidney",6 hours,3501 CMP/mg organ
same,"CMP/mg organ, Liver",6 hours,4109 CMP/mg organ
same,"CMP/mg organ, Lung",6 hours,1788 CMP/mg organ
same,"CMP/mg organ, Spleen",6 hours,2198 CMP/mg organ
same,"CMP/mg organ, Stomach",6 hours,3703 CMP/mg organ
same,"CMP/mg organ, Bone",24 hours,480 CMP/mg organ
same,"CMP/mg organ, Brain",24 hours,986 CMP/mg organ
same,"CMP/mg organ, Contents of intestine",24 hours,5009 CMP/mg organ
same,"CMP/mg organ, Contents of stomach",24 hours,117914 CMP/mg organ
same,"CMP/mg organ, Heart",24 hours,893 CMP/mg organ
same,"CMP/mg organ, Intestine",24 hours,1067 CMP/mg organ
same,"CMP/mg organ, Kidney",24 hours,1065 CMP/mg organ
same,"CMP/mg organ, Liver",24 hours,2175 CMP/mg organ
same,"CMP/mg organ, Lung",24 hours,1312 CMP/mg organ
same,"CMP/mg organ, Spleen",24 hours,2156 CMP/mg organ
same,"CMP/mg organ, Stomach",24 hours,1823 CMP/mg organ
